Data set [1] addresses T1, EGFR (Homo sapiens, UniProt P00533). In words: Rapid dilution irreversibility experiment. Format: biochemical. Further details: The kinase domain of EGFR, ErbB-2, IGF1R, VEGFR2, FGFR1, PDGFRα, c-Src, c-Met, RON, c-Kit, EphA2 and EphB2 were expressed; made in house. As to conditions: preincubated 30 min at 100-fold IC50, diluted 100-fold, sampled 180 minutes. As for the experimental part: The microplate was placed in the EZ Reader (Caliper Life Sciences, MA) and wells were repeatedly sampled for 180 minutes.
To verify this, we determined the reversibility of EGFR and ErbB2 binding using a dilution method. […] After incubating, the enzyme/inhibitor mixture is diluted 100-fold (i.e., to normal reaction conditions), reaction buffer plus ATP and substrate are added, and receptor kinase activity is measured continuously. In general, a reversible inhibitor dissociates quickly, allowing immediate recovery of enzymatic activity, whereas a slowly reversible inhibitor allows a gradual increase in activity. In contrast, an irreversible inhibitor prevents recovery of enzymatic activity.

Data set [2] concerns FVB-2/N^neu transgenic mouse model. In words: Spontaneous breast cancer in FVB-2/N^neu transgenic mouse, tumor growth. Format: in vivo. To be noted: FVB-2/N^neu mice. An excerpt: Thirty eight- to forty four-week-old female FVB/N^neu mice were obtained from Shanghai Laboratory Animal Center. The animals were housed under specific pathogen-free conditions.
Data set [3] is described as follows: Pharmacokinetics after single oral dose. To be noted: rat, in vivo; rats, single oral dose 90 mg/kg; unpublished data.
For data set [4], the target named is SYK (Homo sapiens, UniProt P43405). To be noted: cell-free. How it is done: (§1) The tyrosine kinase activities were determined using enzyme-linked immunosorbant assay (ELISA). The serine/threonine kinase activities were detected by Caliper Mobility Shift Assay on EZ Reader (Caliper Life Sciences, MA) according to the instruction.
(§2) The kinase domain of EGFR, ErbB-2, IGF1R, VEGFR2, FGFR1, PDGFRα, c-Src, c-Met, RON, c-Kit, EphA2 and EphB2 were expressed using the Bac-to-Bac^TM baculovirus expression system (Invitrogen, Carlsbad, CA, USA) and purified on Ni-NTA columns (QIAGEN Inc., Valencia, CA, USA). VEGFR1, PDGFRβ and c-Abl were purchased from Upstate Biotechnology Inc. (Charlottesville, Virginia, USA). […] EGF was purchased from R&D, Minneapolis, […]. Poly(Glu-Tyr)(4:1), the substrate of tyrosine kinase, was from Sigma-Aldrich Corp. St. Louis, MO, USA.
(§3) The tyrosine kinase activities were determined in 96-well ELISA plates (Corning, NY, USA) precoated with 20 μg/mL Poly (Glu,Tyr)4:1. First, 80 μL of 5 μM ATP solution diluted in kinase reaction buffer (50 mM HEPES pH 7.4, 20 mM MgCl2, 0.1 mM MnCl2, 0.2 mM Na3VO4, 1 mM DTT) was added to each well. […] Subsequently, the kinase reaction was initiated by the addition of purified tyrosine kinase proteins diluted in 10 μL of kinase reaction buffer solution. Experiments at each concentration were performed in duplicate. After incubation for 60 min at 37 °C, the plate was washed three times with phosphate buffered saline (PBS) containing 0.1% Tween 20 (T-PBS). Next, 100 μL anti-phosphotyrosine antibody (PY99, 1:500 dilution) diluted in T-PBS containing 5 mg/mL BSA was added. After 30 min incubation at 37 °C, the plate was washed three times as before. Horseradish peroxidase-conjugated goat anti-mouse IgG (100 μL) diluted 1:2000 in T-PBS containing 5 mg/ml BSA was added. The plate was reincubated at 37 °C for 30 min, and then washed with PBS.

Data set [5] has as its target Abl (Homo sapiens, UniProt P00519). To be noted: cell-free. How it is done: as §1, §2, §3
Data set [6] has as its target T1, EGFR. To be noted: cell-free, means ± SD. As for the experimental part:
as §1, §2, §3

The target in data set [7] is c-Kit (Homo sapiens, UniProt P10721). As to conditions: cell-free. As for the experimental part: as §1, §2, §3
Sequence of c-Kit (P10721 589-937 limits assumed): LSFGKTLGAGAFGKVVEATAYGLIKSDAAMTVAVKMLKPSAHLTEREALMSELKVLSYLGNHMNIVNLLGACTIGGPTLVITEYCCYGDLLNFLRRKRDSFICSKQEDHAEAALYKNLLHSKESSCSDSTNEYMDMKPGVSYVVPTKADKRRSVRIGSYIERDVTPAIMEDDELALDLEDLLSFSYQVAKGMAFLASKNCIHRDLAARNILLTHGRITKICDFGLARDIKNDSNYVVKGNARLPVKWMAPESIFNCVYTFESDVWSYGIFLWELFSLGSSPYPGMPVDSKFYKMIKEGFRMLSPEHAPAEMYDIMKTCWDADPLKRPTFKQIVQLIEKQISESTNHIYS
The target in data set [8] is EphA2 (Homo sapiens, UniProt P29317). To be noted: EphA2, cell-free. As for the experimental part: as §1, §2, §3
Sequence of EphA2 (P29317 613-875 limits assumed): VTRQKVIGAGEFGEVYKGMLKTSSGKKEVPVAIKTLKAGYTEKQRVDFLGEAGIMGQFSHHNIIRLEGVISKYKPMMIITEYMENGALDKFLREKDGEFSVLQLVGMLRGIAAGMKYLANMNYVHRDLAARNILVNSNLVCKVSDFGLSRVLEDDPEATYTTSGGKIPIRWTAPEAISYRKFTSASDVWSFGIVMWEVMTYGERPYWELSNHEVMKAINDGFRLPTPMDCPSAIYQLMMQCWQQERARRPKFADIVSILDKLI
Data set [9] concerns the target c-Met (Homo sapiens, UniProt P08581). As to conditions: cell-free. How it is done: as §1, §2, §3
For data set [10], the target named is PDGFRα (Homo sapiens, UniProt P16234). To be noted: cell-free. As for the experimental part:
as §1, §2, §3

Data set [11] deals with Tie2 (Homo sapiens, UniProt Q02763). As to conditions: Tie2, cell-free. As for the experimental part: as §1, §2, §3
Sequence of Tie2 (Q02763 23-1124): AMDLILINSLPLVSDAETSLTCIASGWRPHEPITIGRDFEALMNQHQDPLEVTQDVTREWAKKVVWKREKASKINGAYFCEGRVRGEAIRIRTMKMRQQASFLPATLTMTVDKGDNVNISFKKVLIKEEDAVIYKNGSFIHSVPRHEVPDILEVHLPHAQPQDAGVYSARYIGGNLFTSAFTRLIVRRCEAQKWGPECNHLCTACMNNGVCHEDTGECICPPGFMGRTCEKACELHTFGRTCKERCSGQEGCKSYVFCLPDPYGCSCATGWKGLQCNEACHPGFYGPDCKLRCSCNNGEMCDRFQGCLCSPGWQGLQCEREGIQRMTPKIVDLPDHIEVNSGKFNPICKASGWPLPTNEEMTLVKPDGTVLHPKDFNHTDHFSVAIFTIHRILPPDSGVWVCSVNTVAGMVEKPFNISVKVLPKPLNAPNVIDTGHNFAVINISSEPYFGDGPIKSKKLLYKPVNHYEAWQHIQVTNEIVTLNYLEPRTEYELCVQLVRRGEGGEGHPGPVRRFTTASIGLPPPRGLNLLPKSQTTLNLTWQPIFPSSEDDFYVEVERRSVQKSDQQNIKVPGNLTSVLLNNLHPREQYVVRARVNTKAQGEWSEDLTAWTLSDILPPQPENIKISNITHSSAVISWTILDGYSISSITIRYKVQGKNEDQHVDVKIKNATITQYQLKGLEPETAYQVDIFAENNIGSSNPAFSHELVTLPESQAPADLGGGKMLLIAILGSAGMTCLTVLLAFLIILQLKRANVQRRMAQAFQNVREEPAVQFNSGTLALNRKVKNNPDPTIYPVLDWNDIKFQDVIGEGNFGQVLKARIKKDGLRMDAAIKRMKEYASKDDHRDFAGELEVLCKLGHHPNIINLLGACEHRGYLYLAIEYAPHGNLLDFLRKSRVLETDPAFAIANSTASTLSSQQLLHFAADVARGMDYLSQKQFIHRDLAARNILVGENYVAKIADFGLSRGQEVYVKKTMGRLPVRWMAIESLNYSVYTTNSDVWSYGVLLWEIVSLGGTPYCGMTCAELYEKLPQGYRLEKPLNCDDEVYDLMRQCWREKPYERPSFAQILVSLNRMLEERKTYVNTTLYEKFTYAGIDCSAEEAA
For data set [12], the target named is RON (Homo sapiens, UniProt Q04912). To be noted: cell-free. How it is done:
as §1, §2, §3

Data set [13] has as its target KDR (Homo sapiens, UniProt P35968). As to conditions: cell-free. As for the experimental part:
as §1, §2, §3

Data set [14] concerns the target Flt-1 (Homo sapiens, UniProt P17948). As to conditions: Flt-1, cell-free. As for the experimental part:
as §1, §2, §3

For data set [15], the target named is IGF1R (Homo sapiens, UniProt P08069). To be noted: cell-free. As for the experimental part: as §1, §2, §3
Data set [16] deals with c-Src (Homo sapiens, UniProt P12931). As to conditions: cell-free. As for the experimental part: as §1, §2, §3
Data set [17] deals with EphB2 (Homo sapiens, UniProt P29323). As to conditions: EphB2, cell-free. As for the experimental part:
as §1, §2, §3

The target in data set [18] is JAK2 (Homo sapiens, UniProt O60674). As to conditions: JAK2, cell-free. As for the experimental part:
as §1, §2, §3

Data set [19] deals with FGFR1 (Homo sapiens, UniProt P11362). To be noted: FGFR1, cell-free. How it is done: as §1, §2, §3
Sequence of FGFR1 (P11362 478-767 limits assumed): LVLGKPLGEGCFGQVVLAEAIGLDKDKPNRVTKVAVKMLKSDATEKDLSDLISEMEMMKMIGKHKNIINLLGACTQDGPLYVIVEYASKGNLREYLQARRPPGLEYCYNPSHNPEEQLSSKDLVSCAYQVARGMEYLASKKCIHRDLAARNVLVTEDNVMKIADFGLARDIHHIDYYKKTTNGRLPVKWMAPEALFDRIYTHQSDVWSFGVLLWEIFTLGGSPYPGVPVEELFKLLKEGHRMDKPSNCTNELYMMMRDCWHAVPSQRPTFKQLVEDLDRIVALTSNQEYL
For data set [20], the target named is ErbB2 (Homo sapiens, UniProt P04626). To be noted: ErbB2, cell-free; means ± SD. How it is done:
as §1, §2, §3

For data set [21], the target named is PDGFRβ (Homo sapiens, UniProt P09619). As to conditions: cell-free. As for the experimental part: as §1, §2, §3
Sequence of PDGFRβ (P09619 33-1106): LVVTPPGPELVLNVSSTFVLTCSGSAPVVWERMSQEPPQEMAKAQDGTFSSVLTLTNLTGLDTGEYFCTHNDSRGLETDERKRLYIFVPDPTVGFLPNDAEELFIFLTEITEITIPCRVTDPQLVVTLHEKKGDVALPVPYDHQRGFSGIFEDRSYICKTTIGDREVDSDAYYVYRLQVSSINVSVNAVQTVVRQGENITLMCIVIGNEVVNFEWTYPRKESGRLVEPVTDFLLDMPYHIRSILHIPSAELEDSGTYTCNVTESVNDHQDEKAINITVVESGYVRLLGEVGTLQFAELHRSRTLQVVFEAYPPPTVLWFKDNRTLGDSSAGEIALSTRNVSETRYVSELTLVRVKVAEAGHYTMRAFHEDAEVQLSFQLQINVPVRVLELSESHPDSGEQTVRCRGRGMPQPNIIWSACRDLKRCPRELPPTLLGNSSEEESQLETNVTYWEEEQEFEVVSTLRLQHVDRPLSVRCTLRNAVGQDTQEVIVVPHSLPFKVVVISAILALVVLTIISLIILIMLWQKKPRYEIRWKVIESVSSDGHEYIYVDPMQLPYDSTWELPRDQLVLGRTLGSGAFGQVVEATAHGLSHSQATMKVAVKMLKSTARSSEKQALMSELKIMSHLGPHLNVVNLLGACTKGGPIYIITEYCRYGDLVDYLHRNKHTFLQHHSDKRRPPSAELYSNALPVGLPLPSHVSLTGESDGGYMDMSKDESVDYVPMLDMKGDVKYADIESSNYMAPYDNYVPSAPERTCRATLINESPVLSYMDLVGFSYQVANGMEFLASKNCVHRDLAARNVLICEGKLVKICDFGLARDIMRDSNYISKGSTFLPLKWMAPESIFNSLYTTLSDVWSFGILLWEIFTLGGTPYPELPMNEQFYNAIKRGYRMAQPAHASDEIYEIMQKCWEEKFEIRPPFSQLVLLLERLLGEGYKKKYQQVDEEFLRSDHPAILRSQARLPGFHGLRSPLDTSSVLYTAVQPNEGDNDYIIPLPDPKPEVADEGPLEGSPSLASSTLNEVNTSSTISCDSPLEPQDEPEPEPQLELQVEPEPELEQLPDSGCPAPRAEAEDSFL
Data set [22] deals with A549 cells. Put plainly: Cell proliferation SRB assay. As to conditions: Homo sapiens, A549, 72 h, range given for four cell lines together, read-out: IC50 (antiproliferative). Format: cell-based. Background: In SRB staining, fixed cells bind dye roughly in proportion to their protein.

This is an account of results in publication PMC3138742 (PLoS ONE, 2011).

T1 sequence (P00533 712-979 limits assumed): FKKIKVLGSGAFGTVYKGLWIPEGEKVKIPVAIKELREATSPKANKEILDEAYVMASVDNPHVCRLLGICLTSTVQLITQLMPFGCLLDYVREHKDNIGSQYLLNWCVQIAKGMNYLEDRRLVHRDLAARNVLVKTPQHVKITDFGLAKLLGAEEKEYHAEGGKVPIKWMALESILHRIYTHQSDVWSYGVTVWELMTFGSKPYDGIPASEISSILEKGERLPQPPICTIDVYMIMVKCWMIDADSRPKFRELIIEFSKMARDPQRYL
Sequence of ErbB2 (P04626 720-987 limits assumed): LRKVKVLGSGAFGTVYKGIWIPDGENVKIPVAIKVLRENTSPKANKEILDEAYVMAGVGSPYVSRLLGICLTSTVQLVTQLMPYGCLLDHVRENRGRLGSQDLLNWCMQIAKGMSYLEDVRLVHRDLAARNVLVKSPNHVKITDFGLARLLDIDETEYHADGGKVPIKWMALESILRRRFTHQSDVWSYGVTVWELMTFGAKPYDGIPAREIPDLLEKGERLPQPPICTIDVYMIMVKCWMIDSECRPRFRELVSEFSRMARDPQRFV
Sequence of KDR (P35968 834-1162 limits assumed): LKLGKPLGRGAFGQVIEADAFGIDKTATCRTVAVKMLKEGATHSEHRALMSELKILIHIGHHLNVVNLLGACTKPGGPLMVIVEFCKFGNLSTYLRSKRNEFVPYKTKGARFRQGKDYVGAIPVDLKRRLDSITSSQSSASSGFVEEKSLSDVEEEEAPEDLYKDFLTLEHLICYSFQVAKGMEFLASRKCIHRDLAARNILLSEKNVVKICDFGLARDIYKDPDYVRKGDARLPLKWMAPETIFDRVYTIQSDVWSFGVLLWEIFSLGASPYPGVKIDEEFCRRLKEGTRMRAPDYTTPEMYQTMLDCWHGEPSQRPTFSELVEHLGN
Sequence of c-Met (P08581 1078-1345 limits assumed): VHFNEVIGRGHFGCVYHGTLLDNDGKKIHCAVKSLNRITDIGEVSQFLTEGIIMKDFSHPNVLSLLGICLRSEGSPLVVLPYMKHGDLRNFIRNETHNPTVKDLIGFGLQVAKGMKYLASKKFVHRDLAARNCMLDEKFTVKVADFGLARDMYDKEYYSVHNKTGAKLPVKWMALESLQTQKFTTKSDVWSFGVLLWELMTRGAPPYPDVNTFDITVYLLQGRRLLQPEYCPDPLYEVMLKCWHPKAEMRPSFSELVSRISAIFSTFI
Sequence of EphB2 (P29323 621-884 limits assumed): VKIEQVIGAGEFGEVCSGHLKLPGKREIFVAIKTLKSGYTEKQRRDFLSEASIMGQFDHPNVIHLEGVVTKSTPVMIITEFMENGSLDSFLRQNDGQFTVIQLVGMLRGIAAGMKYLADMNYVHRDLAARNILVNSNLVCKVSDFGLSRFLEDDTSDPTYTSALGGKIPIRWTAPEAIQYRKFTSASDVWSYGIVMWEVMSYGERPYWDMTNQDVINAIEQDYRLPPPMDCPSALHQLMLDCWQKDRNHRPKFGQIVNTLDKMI
Sequence of RON (Q04912 1082-1345 limits assumed): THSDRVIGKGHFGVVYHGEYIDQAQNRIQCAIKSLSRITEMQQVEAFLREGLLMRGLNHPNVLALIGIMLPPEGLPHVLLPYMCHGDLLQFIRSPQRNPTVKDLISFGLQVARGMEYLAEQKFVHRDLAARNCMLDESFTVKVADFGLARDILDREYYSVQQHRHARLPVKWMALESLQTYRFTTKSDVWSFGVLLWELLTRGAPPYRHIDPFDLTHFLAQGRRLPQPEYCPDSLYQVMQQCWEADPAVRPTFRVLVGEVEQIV

`C=CC(=O)Nc1ccc2ncnc(Nc3ccc(OCc4cccc(F)c4)c(Cl)c3)c2c1` [AST1306]: the “recovery of EGFR enzymatic activity after dilution” value in [1] is “virtually no EGFR or ErbB2 activity was recovered”. In addition, the tumor growth entry in data set [2] (oral twice daily for 3 wk) was “dramatic suppression of tumor growth”. Besides, in data set [2] (oral twice daily, 11 d), the “tumors after treatment for 11 d” value was “tumors almost completely disappeared”. For the same compound, in [3], the half-life (commonly the time in which the quantity being followed falls by half) was below 216 min. The IC50 (in general, the concentration at which inhibition is half-maximal) was above 10 µM in data set [4]; above 10 µM in data set [5]; 0.5 ± 0.2 nM in data set [6]; above 10 µM in data set [7]; above 10 µM in [8]; above 10 µM in [9]. The IC50 in data set [10], in [11], in data set [12], in data set [13], in data set [14] and in data set [15] was above 10 µM each time. Further, the IC50 was above 10 µM in [16]; above 10 µM in data set [17]; above 10 µM in data set [18]; above 10 µM in data set [19]; 3 ± 1.5 nM in [20]; above 10 µM in data set [21]. Further, in [22], the IC50 fell in the range of 6.2 to 7.5 µM.
